For 27 molecules, EC50 results are on record in patent publication US20070213301A1 (ACHILLION PHARMACEUTICALS, INC., priority 2006, published 2007).

The assay has as its system HCV replicon. The assay is described as follows: HCV replicon replication assay (NPTII ELISA). It is filed as cell-based, Hepatitis C virus (Huh-7 cells). The following applies: Hepatitis C virus, Huh-7, 72 h, inhibition of HCV replicon replication in Huh-7 HCV replicon-containing cells, three days incubation, NPT level by ELISA; read-out: EC50. The method, then:
Compounds claimed herein are tested for the ability to inhibit viral replication of the Hepatitis C replicon in cultured cells in which the HCV replicon construct has been incorporated. The HCV replicon system was described by Bartenschlager, et. al (Science, 285, pp. 110-113 (1999)). The replicon system is predictive of in vivo anti-HCV activity; compounds that are active in humans uniformly evidence activity in the replicon assay.
In this assay HCV replicon containing cells are treated with different concentrations of the test compound to ascertain the ability of the test compound to suppress replication of the HCV replicon. As a positive control, HCV replicon-containing cells are treated with different concentrations of interferon alpha, a known inhibitor of HCV replication. The replicon assay system includes Neomycin Phosphotransferase (NPT) as a component of the replicon itself in order to detect the transcription of replicon gene products in the host cell. Cells in which the HCV replicon is actively replicating have high levels of NPT; the level of NPT is proportional to HCV replication. […] The NPT level of each sample is measured using a captured ELISA.
The HCV replicon contains, 5′-3′, the HCV-IRES, the neomycin phosphotransferase (neo) gene, the IRES of encephalomyocarditis virus, which directs translation of HCV sequences NS3 to NS5B, and the 3′-NTR. The sequence of the HCV replicon has been deposited in GenBank (Accession no. AJ242652).
The replicon is transfected into Huh-7 cells using standard methods such as electroporation.
The cells are then seeded onto 96-well plates at a density of 6000-7500 cells/100 microliters/well (6-7.5×10^5 cells/10 ml/plate). The plates are then incubated at 37° C. in a 5% CO2 incubator.
HCV replicon-containing cells are rinsed with once PBS once; 2 mls of trypsin are then added. Cells are incubated at 37° C. in a 5% CO2 incubator for 3-5 minutes. 10 mls of complete medium is added to stop the reaction. Cells are blown gently, put into a 15 ml tube, and spun at 1200 rpm for four minutes. The trypsin/medium solution is removed and 5 mls of medium (500 ml DMEM (high glucose)) from BRL catalog #12430-054; 50 mls 10% FBS, 5% Geneticin G418 (50 mg/ml, BRL catalog #10131-035), 5 ml MEM non-essential amino acids (100× BRL #11140-050) and 5 ml pen-strep (BRL #15140-148) is added. The cells and media are mixed carefully
Cells are plated with screening medium (500 ml DMEM (BRL #21063-029), 50 ml FBS (BRL #10082-147) and 5 ml MEM non-essential amino acid (BRL #11140-050) at 6000-7500 cells/100 μl/well of 96 well plate (6-7.5×10^5 cells/10 ml/plate). Plates are placed into 37° C. 5% CO2 incubator overnight.
The following morning, drugs (test compounds or interferon alpha) are diluted in 96 well U bottom plates with media or DMSO/media, depending on the final concentration chosen for screening. Generally for 6 concentrations of each test compounds ranging from 10 micromolar to 0.03 micromolar are applied. 100 μl of the test compound dilution is placed in wells of the 96 well plate containing the HCV replicon cells. Media without drug is added to some wells as a negative controls. DMSO is known to affect cell growth. Therefore, if drugs diluted in DMSO are used, all wells, including negative control (media only) and positive control (interferon alpha) wells, must contain the same concentration of DMSO, for single dose screening. The plates are incubated at 37° C. in a humidified 5% CO2 environment for three days.
On day four, the NTPII assay is quantitated. The medium is poured from the plates and the plates are washed once in 200 μl of PBS. The PBS is then decanted and the plates tapped in a paper towel to remove any remaining PBS. Cells are fixed in situ with 100 μl/well of pre-cooled (−20° C.) methanol:acetone (1:1) and the plates are placed at −20° C. for 30 minutes.
The fixing solution is poured from the plates and the plates allowed to air-dry completely (approximately one hour). […]

As for `CCCCCN(C)c1ccc(N(C(=O)C(=O)OC)c2nc(-c3cccnc3)cs2)cc1C(F)(F)F` [Compound 53, methyl 2-((4-(methyl(pentyl)amino)-3-(trifluoromethyl)phenyl)(4-(pyridin-3-yl)thiazol-2-yl)amino)-2-oxoacetate], the EC50 was less than 1 µM.
For `CCCCCOc1ccc(N(C(=O)COC(C)=O)c2nc(-c3ccc(F)c(F)c3)cs2)cc1C(F)(F)F` [Compound 54, 2-((4-(3,4-difluorophenyl)thiazol-2-yl)(4-(pentyloxy)-3-(trifluoromethyl)phenyl)amino)-2-oxoethyl acetate] the value was less than 1 µM; for `CCCCCOc1ccc(N(C(=O)OC)c2nc(-c3ccc(F)c(F)c3)cs2)cc1C(F)(F)F` [Compound 56, methyl 4-(3,4-difluorophenyl)thiazol-2-yl(4-(pentyloxy)-3-(trifluoromethyl)phenyl)carbamate], less than 1 µM; for `CCCCCCCCOc1ccc(N(C(=O)COC(C)=O)c2nc(-c3ccc(F)c(F)c3)cs2)cc1` [Compound 57, 2-((4-(3,4-difluorophenyl)thiazol-2-yl)(4-(octyloxy)phenyl)amino)-2-oxoethyl acetate], less than 1 µM.
In the case of `CCCCCCCCOc1ccc(N(C(=O)C(=O)OC)c2nc(-c3ccc(F)c(F)c3)cs2)cc1` [Compound 58, methyl 2-((4-(3,4-difluorophenyl)thiazol-2-yl)(4-(octyloxy)phenyl)amino)-2-oxoacetate] it was less than 1 µM; in that of `CCCCCCCCOc1ccc(N(C(=O)OC)c2nc(-c3ccc(F)c(F)c3)cs2)cc1` [Compound 59, methyl 4-(3,4-difluorophenyl)thiazol-2-yl(4-(octyloxy)phenyl)carbamate], 1 to 10 µM.
In the case of `CCCCCCCCOc1ccc(N(C(=O)COC(C)=O)c2nc(-c3ccc(F)cc3)cs2)cc1` [Compound 60, 2-((4-(4-fluorophenyl)thiazol-2-yl)(4-(octyloxy)phenyl)amino)-2-oxoethyl acetate] it was less than 1 µM; in that of `CCCCCCCCOc1ccc(N(C(N)=O)c2nc(-c3ccc(F)cc3)cs2)cc1` [Compound 61, 1-(4-(4-fluorophenyl)thiazol-2-yl)-1-(4-(octyloxy)phenyl)urea], 1 to 10 µM.
Consider `CCCCCOc1ccc(N(C(=O)CO)c2nc(-c3cccnc3)cs2)cc1C(F)(F)F` [Compound 62, 2-hydroxy-N-(4-(pentyloxy)-3-(trifluoromethyl)phenyl)-N-(4-(pyridin-3-yl)thiazol-2-yl)acetamide], for which the EC50 was less than 1 µM.
`CCCCCCCCOc1ccc(N(C(=O)C(C)OC(C)=O)c2nc(-c3ccc(C)nc3)cs2)cc1` (stereo not drawn) [Compound 63, 1-((4-(6-methylpyridin-3-yl)thiazol-2-yl)(4-(octyloxy)phenyl)amino)-1-oxopropan-2-yl acetate]: the EC50 was less than 1 µM.
For the molecule `CCCCCOc1ccc(N(C(=O)C(C)OC(C)=O)c2nc(-c3cccnc3)cs2)cc1C(F)(F)F` (stereo not drawn) [Compound 64, 1-oxo-1-((4-(pentyloxy)-3-(trifluoromethyl)phenyl)(4-(pyridin-3-yl)thiazol-2-yl)amino)propan-2-yl acetate], the EC50 is less than 1 µM.
Turning to `CCCCCOc1ccc(N(C(=O)C(OC(C)=O)c2ccccc2)c2nc(-c3cccnc3)cs2)cc1C(F)(F)F` (stereo not drawn) [Compound 65, 2-oxo-2-((4-(pentyloxy)-3-(trifluoromethyl)phenyl)(4-(pyridin-3-yl)thiazol-2-yl)amino)-1-phenylethyl acetate], the half-maximal effective concentration (EC50) was less than 1 µM.
Consider `CCCCCCCCOc1ccc(N(C(=O)C(=O)OCC)c2nc(-c3cccnc3)cs2)cc1` [Compound 66, ethyl 2-((4-(octyloxy)phenyl)(4-(pyridin-3-yl)thiazol-2-yl)amino)-2-oxoacetate], for which the concentration giving a half-maximal response (EC50) was less than 1 µM.
For `CCCCCCCCOc1ccc(N(C(=O)COC(C)=O)c2nc(-c3cccnc3)cs2)cc1` [Compound 67, 2-((4-(octyloxy)phenyl)(4-(pyridin-3-yl)thiazol-2-yl)amino)-2-oxoethyl acetate] the value was less than 1 µM; for `CCCCCCCCOc1ccc(N(C(C)=O)c2nc(-c3cccnc3)cs2)cc1` [Compound 68, N-(4-(octyloxy)phenyl)-N-(4-(pyridin-3-yl)thiazol-2-yl)acetamide], less than 1 µM.
In the case of `CCCCCOc1ccc(N(C(N)=O)c2nc(-c3ccc(F)cc3)cs2)cc1C(F)(F)F` [Compound 69, 1-(4-(4-fluorophenyl)thiazol-2-yl)-1-(4-(pentyloxy)-3-(trifluoromethyl)phenyl)urea] it was less than 1 µM; in that of `CCCCCOc1ccc(N(C(N)=O)c2nc(-c3cccnc3C)cs2)cc1C(F)(F)F` [Compound 70, 1-(4-(2-methylpyridin-3-yl)thiazol-2-yl)-1-(4-(pentyloxy)-3-(trifluoromethyl)phenyl)urea], less than 1 µM.
In the case of `CCCCCCCOc1ccc(N(C(N)=O)c2nc(-c3ccc(F)cc3)cs2)cc1` [Compound 71, 1-(4-(4-fluorophenyl)thiazol-2-yl)-1-(4-(heptyloxy)phenyl)urea] it was less than 1 µM.
As to `CCCCCCCCOc1ccc(N(C(N)=O)c2nc(-c3cccnc3)cs2)cc1` [Compound 72, 1-(4-(octyloxy)phenyl)-1-(4-(pyridin-3-yl)thiazol-2-yl)urea], the half-maximal effective concentration (EC50) was less than 1 µM.
Turning to `CCCCCCCCOc1ccc(N(C(=O)NCC)c2nc(-c3cccnc3)cs2)cc1` [Compound 73, 3-ethyl-1-(4-(octyloxy)phenyl)-1-(4-(pyridin-3-yl)thiazol-2-yl)urea], the half-maximal effective concentration (EC50) is more than 10 µM.
In the case of `CCCCCCCCOc1ccc(N(C(=O)NC(C)(C)C)c2nc(-c3cccnc3)cs2)cc1` [Compound 74, 3-tert-butyl-1-(4-(octyloxy)phenyl)-1-(4-(pyridin-3-yl)thiazol-2-yl)urea] it was 1 to 10 µM; in that of `CCCCCOc1ccc(N(C(=O)NCC)c2nc(-c3cccnc3)cs2)cc1C(F)(F)F` [Compound 75, 3-ethyl-1-(4-(pentyloxy)-3-(trifluoromethyl)phenyl)-1-(4-(pyridin-3-yl)thiazol-2-yl)urea], less than 1 µM; in that of `CCCCCOc1ccc(N(C(=O)NC(C)(C)C)c2nc(-c3cccnc3)cs2)cc1C(F)(F)F` [Compound 76, 3-tert-butyl-1-(4-(pentyloxy)-3-(trifluoromethyl)phenyl)-1-(4-(pyridin-3-yl)thiazol-2-yl)urea], less than 1 µM.
For `CCCCCOc1ccc(N(C(N)=O)c2nc(-c3ccc(C(=O)N(C)C)nc3)cs2)cc1C(F)(F)F` [Compound 77, N,N-dimethyl-5-(2-(1-(4-(pentyloxy)-3-(trifluoromethyl)phenyl)ureido)thiazol-4-yl)picolinamide] the value was less than 1 µM.
For the molecule `CCCCCCCCOc1ccc(N(C(N)=O)c2nc(-c3ccc(C(=O)N(C)C)nc3)cs2)cc1` [Compound 78, N,N-dimethyl-5-(2-(1-(4-(octyloxy)phenyl)ureido)thiazol-4-yl)picolinamide], the 50% effective concentration (EC50) was more than 10 µM.
For `CCCCCCCOc1ccc(N(C(N)=O)c2nc(-c3ccc(C(=O)N(C)C)nc3)cs2)cc1` [Compound 79, 5-(2-(1-(4-(heptyloxy)phenyl)ureido)thiazol-4-yl)-N,N-dimethylpicolinamide] the value was more than 10 µM; for `CCCCCCCCOc1ccc(N(C(N)=O)c2nc(-c3ccncc3)cs2)cc1` [Compound 80, 1-(4-(octyloxy)phenyl)-1-(4-(pyridin-4-yl)thiazol-2-yl)urea], more than 10 µM.
